Structures are written as SMILES.

The test deals with T1, URAT1WT (Homo sapiens, UniProt Q96S37).
T1 construct: expressed in transfected cells; host or cells: HEK293 cells (ATCC, CRL-3216), transient transfection with Lipofectamine 3000
T1 sequence (Q96S37 1-553): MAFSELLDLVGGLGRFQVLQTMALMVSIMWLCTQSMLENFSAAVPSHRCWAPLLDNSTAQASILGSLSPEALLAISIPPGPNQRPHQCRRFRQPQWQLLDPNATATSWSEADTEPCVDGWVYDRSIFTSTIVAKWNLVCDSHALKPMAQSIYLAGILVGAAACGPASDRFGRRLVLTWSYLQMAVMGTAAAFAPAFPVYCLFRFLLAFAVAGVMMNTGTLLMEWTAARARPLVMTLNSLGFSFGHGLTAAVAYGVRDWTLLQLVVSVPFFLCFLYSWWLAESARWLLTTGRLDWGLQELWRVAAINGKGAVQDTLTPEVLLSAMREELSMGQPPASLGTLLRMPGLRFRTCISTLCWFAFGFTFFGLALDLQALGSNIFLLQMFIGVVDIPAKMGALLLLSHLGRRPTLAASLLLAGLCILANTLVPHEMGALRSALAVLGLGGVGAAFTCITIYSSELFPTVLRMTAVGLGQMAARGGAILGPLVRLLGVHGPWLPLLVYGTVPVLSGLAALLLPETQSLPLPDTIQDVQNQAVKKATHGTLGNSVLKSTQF
The test is described as follows: 14C-urate uptake inhibition in HEK293 cells expressing WT URAT1. It counts as cell-based. The method, then:
Data are shown as mean ± SD; n = 3 biological replicates. In a, b, uptake buffer: 20 mM HEPES pH 7.4, 125 mM sodium gluconate, 4.8 mM potassium gluconate, 1.2 mM monobasic potassium phosphate, 1.2 mM magnesium sulfate, 1.3 mM calcium gluconate, and 5.6 mM glucose. c Cryo-EM density maps of URAT1 in the apo and substrate-bound states. […] Putative lipid densities are in light cyan. d Cryo-EM density maps of URAT1 in the drug-bound states. […] Putative lipid densities are in light cyan. e Diagram of URAT1 topology. ECD, extracellular domain. f Structure of URAT1 in the apo state. g Slice view of URAT1 in the apo state, showing the central cavity and opening to the intracellular side.
Human embryonic kidney (HEK) 293 cells (ATCC, CRL-3216) were seeded onto poly(D-lysine)-coated 96-well plates at a density of 0.3 × 10^5 cells per well and cultured at 37 °C until reaching approximately 70%–80% confluence. The cells were transiently transfected with plasmids encoding the URAT1 WT or mutants using Lipofectamine 3000 (Invitrogen, L3000001), following the manufacturer’s protocol. The transfected cells were cultured at 37 °C for 12 h. Following this, 10 mM sodium butyrate was added, and the cells were further incubated at 30 °C for an additional 24 h. […]

The compound `O=C(c1cc(Cl)c(O)c(Cl)c1)N1CS(=O)(=O)c2ccccc21` [dotinurad] yielded an IC50 of 170 nM.

The values are drawn from article PMC11528023, “Transport mechanism and structural pharmacology of human urate transporter URAT1” (Cell Research, 2024).
